Data on six compounds can be found in PMC10253860, “Kinetic Profile of Urine Metabolites after Acute Intake of a Phenolic Compounds-Rich Juice of Juçara (Euterpe edulis Mart.) and Antioxidant Capacity in Serum and Erythrocytes: A Human Study” (International Journal of Molecular Sciences, 2023).

A short description of one data set: Urinary excretion of phenolic metabolites after single 400 mL juçara juice intake (HPLC-DAD, LC-ESI-MS/MS). The format is in vivo, human. Conditions: baseline samples, before the juice intake. The text has this:
Study volunteers were selected according to the following inclusion criteria: no clinical conditions such as cardiovascular, endocrine, gastrointestinal, renal, or hepatic diseases; no visible or known infections or inflammatory processes within three months of the study; no use of medicines or dietary supplements, no smoking, no regular alcohol drinking. The other criteria were BMI < 30 kg/m^2 and no gastric intolerance or complications related to the juçara juice intake. […] The subjects were advised to avoid vegetable and fruit sources of anthocyanins or their derivatives, such as açai, blackberries, blueberries, cherries, red and purple grapes, strawberries, and green and black tea, two days before the study. […] The subjects were also instructed not to practice intense physical activity and not to deprive themselves of sleeping before the outset of the study protocol. […] Subsequently, the participants drank 400 mL of the juçara juice within 5 min. Blood (30, 60, 120, and 360 min) and urine (0–3, 3–6 h) were collected again. The volunteers continued fasting during the 6 h of the sample collection time. The study protocol was based on evidence that anthocyanins appear to be rapidly absorbed and then eliminated within 4 h. […] Blood oxidative stress biomarkers were assessed, and urine metabolites of phenolic compounds were measured.
Phenolic compounds were extracted in urine using Waters OASIS HLB μElution plates (Milford, MA, USA), which were preconditioned with 250 μL methanol and 250 μL 0.2% acetic acid. After urine collection, the samples were immediately acidified with trifluoracetic acid. Aliquots of the samples were applied to the μ Columns of the plates and the phenolic compounds were eluted with methanol acidified with 0.2% acetic acid. The eluate was dried using CentriVap Benchtop Vacuum Concentrators (Labconco, Kansas City, MO, USA), reconstituted with methanol acidified with 5% acetic acid, and filtered with a […] PTEF filter (Millipore, Bedford, MA, USA).
The mobile phase consisted of two solvents: (A) 0.5% formic acid in water and (B) 0.5% formic acid in acetonitrile. The gradient used was 10% (B) at the beginning, 10% at 5 min, 20% at 15 min, 25% at 25 min, 35% at 33 min, 50% at 38 min, 90% at 43–44 min and 10% at 45 min. […] Quantification was based on the calibration curves of the PCA, VA, iVA, HA, HBA, and HPA standards. The concentrations were expressed as μmol/mmol creatinine for urine samples, and the elimination values were expressed in μmol. Urinary creatinine was evaluated using a Labtest kit (Labtest Diagnóstica S.A., Lagoa Santa, Minas Gerais, Brazil). The area under the curve (AUC) was calculated using the trapezoidal rule (data expressed as μmol/h), and the maximum concentration (Cmax) was calculated using the Origin 6.0 software (OriginLab Corporation, Northampton, MA, USA) and expressed as the mean and standard error of the mean (SEM). The samples collected from 0 to 3 h (after the juçara juice intake) were indicated as 3 h urine and the samples collected from 3 to 6 h were designated as 6 h urine to indicate the period of excretion. The standards’ purity varied from 95 to 98%.
Phenolic compounds’ metabolites were identified using a Prominence Liquid Chromatograph (Shimadzu, Japan) coupled to an ion trap Esquires-LC mass spectrometer (Bruker Daltonics, Billerica, MA, USA) with an electrospray ionization (ESI) interface. The chromatography condition was the same as that used for metabolite quantification by HPLC-DAD. After passing through the DAD detector, the flow rate was changed to 0.2 mL/min to inject the samples into the mass spectrometer. ESI was left in the positive mode for anthocyanins and in the negative mode for the other compounds. […] Scanning m/z was 100–1500.
For `O=C(O)CNC(=O)c1ccccc1` [Hippuric acid], the “average urine concentration at baseline” value was “around 243.06 µmol/mmol creatinine”.

The same data set, now with this note: urine, 0–6 h after 400 mL juçara juice; mean ± SEM, n = 9–10.
In the case of `O=C(O)[C@H]1O[C@@H](Oc2c(-c3ccc(O)cc3)oc3cc(O)cc(O)c3c2=O)[C@H](O)[C@@H](O)[C@@H]1O` [Kaempferol glucuronide], the AUC was 138.05 ± 20.58 µmol/h.

As for `COc1cc(C(=O)O)ccc1O` [Vanillic acid], the AUC was 191.42 ± 25.98 µmol/h.

With `O=C(O)Cc1ccc(O)cc1` [Hydroxyphenylacetic acid], the AUC is reported as 3527.78 ± 657.52 µmol/h.

With `O=C(O)c1ccc(O)c(O)c1.O=C(O)c1ccc(O)c(O)c1` [Protocatechuic acid, 3,4-Dihydroxybenzoic acid (protocatechuic acid)], the AUC is recorded as 282.89 ± 49.31 µmol/h.

Take `O=C(O)CNC(=O)c1ccccc1` [Hippuric acid]: the AUC is listed as 6483.34 ± 1159.82 µmol/h.

Take `COc1cc(C(=O)O)ccc1O[C@@H]1O[C@H](C(=O)O)[C@@H](O)[C@H](O)[C@H]1O` [Vanillic acid glucuronide]: the AUC stood at 164.38 ± 14.98 µmol/h.

The same data set, now with this note: urine, 10 healthy subjects, after 400 mL juçara juice; mean ± SEM, n = 9–10.
For `O=C(O)[C@H]1O[C@@H](Oc2c(-c3ccc(O)cc3)oc3cc(O)cc(O)c3c2=O)[C@H](O)[C@@H](O)[C@@H]1O` [Kaempferol glucuronide], the Cmax worked out at 13.62 ± 1.89 µmol/mmol Creatinine.

Turning to `COc1cc(C(=O)O)ccc1O` [Vanillic acid], the Cmax worked out at 20.13 ± 2.27 µmol/mmol Creatinine.

Consider `O=C(O)Cc1ccc(O)cc1` [Hydroxyphenylacetic acid], for which the Cmax turned out to be 334.09 ± 46.79 µmol/mmol Creatinine.

`O=C(O)c1ccc(O)c(O)c1.O=C(O)c1ccc(O)c(O)c1` [Protocatechuic acid, 3,4-Dihydroxybenzoic acid (protocatechuic acid)]: the Cmax worked out at 28.26 ± 3.62 µmol/mmol Creatinine.

As to `O=C(O)CNC(=O)c1ccccc1` [Hippuric acid], the Cmax was 605.80 ± 75.74 µmol/mmol Creatinine.

For `COc1cc(C(=O)O)ccc1O[C@@H]1O[C@H](C(=O)O)[C@@H](O)[C@H](O)[C@H]1O` [Vanillic acid glucuronide], the Cmax came out at 16.74 ± 1.33 µmol/mmol Creatinine.

Test in a further data set: not given
Also on record: method as in PMID 12488939, PMID 34430750. The note with it: toluene-free healthy volunteers; cited from earlier work.
With `O=C(O)CNC(=O)c1ccccc1` [Hippuric acid], the normal urine value is on record as 126.36–245.13 µmol/mmol creatinine.
